pIC50: −log10 of the molar value.
Tested on: KRAS G12V dependent lung adenocarcinoma cell line, NCI-H441
Assay: Cellular pERK (Thr202/Tyr204) FRET/HTRF assay
Format: cell-based
Details: Homo sapiens, NCI-H441, cellular pERK (Thr202/Tyr204) HTRF, NCI-H441 cells
Procedure, shortened: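 NCI-H441 cells (KRAS G12V) plated overnight at 37 °C, then exposed to compounds for 1 hr at 37 °C, 5% CO2; DMSO as negative control. Lysates read by Eu-cryptate/d2 sandwich FRET (665 nm) for ERK1/2 phosphorylated at Thr202/Tyr204; IC50 from curve fit.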

Structure (SMILES)	pIC50
[2H]C([2H])(Oc1nc(N2CCOC[C@H]3[C@H](F)[C@H]32)c2cnc(-c3cc(N)cc(C4CC4)c3C(F)(F)F)c(F)c2n1)[C@@]12CCCN1C[C@H](F)C2 [Example 165, 3-cyclopropyl-5-(8-fluoro-4-((1S,7S,8S)-8-fluoro-5-oxa-2-azabicyclo[5.1.0]octan-2-yl)-2-(((2R,7aS)-2-fluorotetrahydro-1H-pyrrolizin-7a(5H)-yl)methoxy-d2)pyrido[4,3-d]pyrimidin-7-yl)-4-(trifluoromethyl)aniline]	6.30 to 7.30
[2H]C([2H])(Oc1nc(N2CCOC[C@H]3[C@H](F)[C@H]32)c2cc(Cl)c(-c3ccc(F)c4sc(N)c(C#N)c34)c(F)c2n1)[C@@]12CCCN1C[C@H](F)C2 (atropisomer, axis not shown; (aS)) [Example 352, 2-amino-4-((S)-6-chloro-8-fluoro-4-((1S,7S,8S)-8-fluoro-5-oxa-2-azabicyclo[5.1.0]octan-2-yl)-2-(((2R,7aS)-2-fluorotetrahydro-1H-pyrrolizin-7a(5H)-yl)methoxy-d2)quinazolin-7-yl)-7-fluorobenzo[b]thiophene-3-carbonitrile]	5.00 to 6.30
[2H]C([2H])([2H])Oc1c(F)c(F)c(F)c2cc(N)cc(-c3ncc4c(N5CCC=C[C@H]6[C@H](F)[C@H]65)nc(OC([2H])([2H])[C@@]56CCCN5C[C@H](F)C6)nc4c3F)c12 [Example 148, 6,7,8-Trifluoro-4-(8-fluoro-4-((1S,7R,8S)-8-fluoro-2-azabicyclo[5.1.0]oct-5-en-2-yl)-2-(((2R,7aS)-2-fluorotetrahydro-1H-pyrrolizin-7a(5H)-yl)methoxy-d2)pyrido[4,3-d]pyrimidin-7-yl)-5-(methoxy-d3)naphthalen-2-amine]	6.30 to 7.30
[2H]C([2H])([2H])Oc1c(F)cc(F)c2cc(N)cc(-c3ncc4c(N5CCOC[C@H]6[C@H](F)[C@H]65)nc(OC([2H])([2H])[C@@]56CCCN5C[C@H](F)C6)nc4c3F)c12 [Example 131, 6,8-difluoro-4-(8-fluoro-4-((1S,7S,8S)-8-fluoro-5-oxa-2-azabicyclo[5.1.0]octan-2-yl)-2-(((2R,7aS)-2-fluorotetrahydro-1H-pyrrolizin-7a(5H)-yl)methoxy-d2)pyrido[4,3-d]pyrimidin-7-yl)-5-(methoxy-d3)naphthalen-2-amine]	> 7.30
C#Cc1c(Cl)ccc2cc(O)cc(-c3ncc4c(N5CCOC[C@H]6[C@H](F)[C@H]65)nc(OC[C@@H]5CCCN5C)nc4c3F)c12 [Example 294, 6-chloro-5-ethynyl-4-(8-fluoro-4-((1S,7S,8S)-8-fluoro-5-oxa-2-azabicyclo[5.1.0]octan-2-yl)-2-(((S)-1-methylpyrrolidin-2-yl)methoxy)pyrido[4,3-d]pyrimidin-7-yl)naphthalen-2-ol]	> 7.30
[2H]C([2H])(Oc1nc(N2CC[C@H](C#N)C[C@@H]3[C@@H](F)[C@@H]32)c2cnc(-c3cc(N)cc4ccc(F)c(C#C)c34)c(F)c2n1)[C@@]12CCCN1C[C@H](F)C2 [Example 307, (1R,5R,7S,8R)-2-(7-(3-amino-8-ethynyl-7-fluoronaphthalen-1-yl)-8-fluoro-2-(((2R,7aS)-2-fluorotetrahydro-1H-pyrrolizin-7a(5H)-yl)methoxy-d2)pyrido[4,3-d]pyrimidin-4-yl)-8-fluoro-2-azabicyclo[5.1.0]octane-5-carbonitrile]	6.30 to 7.30
C#Cc1cccc2cc(N)cc(-c3ncc4c(N5CCOC[C@@H]6[C@@H](Cl)[C@@H]65)nc(OC[C@@H]5CCCN5C)nc4c3F)c12 [Example 327, 4-(4-((1R,7R,8R)-8-chloro-5-oxa-2-azabicyclo[5.1.0]octan-2-yl)-8-fluoro-2-(((S)-1-methylpyrrolidin-2-yl)methoxy)pyrido[4,3-d]pyrimidin-7-yl)-5-ethynylnaphthalen-2-amine]	6.30 to 7.30
[2H]C([2H])(Oc1nc(N2CCOC[C@H]3[C@H](F)[C@H]32)c2cnc(-c3cc(NC(C)=O)cc4ccc(F)c(C#C)c34)c(F)c2n1)[C@@]12CCCN1C[C@H](F)C2 [Example 263, N-(5-ethynyl-6-fluoro-4-(8-fluoro-4-((1S,7S,8S)-8-fluoro-5-oxa-2-azabicyclo[5.1.0]octan-2-yl)-2-(((2R,7aS)-2-fluorotetrahydro-1H-pyrrolizin-7a(5H)-yl)methoxy-d2)pyrido[4,3-d]pyrimidin-7-yl)naphthalen-2-yl)acetamide]	6.30 to 7.30
[2H]C([2H])(Oc1nc(N2CCC=C[C@H]3[C@H](F)[C@H]32)c2cnc(-c3cc(N)cc4cc(F)c(F)c(C#C)c34)c(F)c2n1)[C@@]12CCCN1C[C@H](F)C2 [Example 94, 5-ethynyl-6,7-difluoro-4-(8-fluoro-4-((1S,7R,8S)-8-fluoro-2-azabicyclo[5.1.0]oct-5-en-2-yl)-2-(((2R,7aS)-2-fluorotetrahydro-1H-pyrrolizin-7a(5H)-yl)methoxy-d2)pyrido[4,3-d]pyrimidin-7-yl)naphthalen-2-amine]	> 7.30
[2H]C([2H])(Oc1nc(N2CCOC[C@H]3[C@H](F)[C@H]32)c2cc(F)c(-c3cc(N)cc(C)c3C(F)(F)F)c(F)c2n1)[C@@]12CCCN1C[C@H](F)C2 [Example 169, 3-(6,8-difluoro-4-((1S,7S,8S)-8-fluoro-5-oxa-2-azabicyclo[5.1.0]octan-2-yl)-2-(((2R,7aS)-2-fluorotetrahydro-1H-pyrrolizin-7a(5H)-yl)methoxy-d2)quinazolin-7-yl)-5-methyl-4-(trifluoromethyl)aniline]	5.00 to 6.30
[2H]C([2H])(Oc1nc(N2CCOC[C@H]3[C@H](F)[C@H]32)c2cnc(-c3cc(N)cc4ccc(F)c(C#C)c34)c(F)c2n1)[C@@]12CCCN1C[C@@H](CF)C2 (single isomer, unassigned) [Example 265]	> 7.30
Cc1c(F)c(N)cc(-c2ncc3c(N4CCCC[C@H]5[C@H](F)[C@H]54)nc(OC[C@@]45CCCN4CC(=C(F)F)C5)nc3c2F)c1C(F)(F)F [Example 394, 5-(2-(((S)-2-(difluoromethylene)tetrahydro-1H-pyrrolizin-7a(5H)-yl)methoxy)-8-fluoro-4-((1S,7R,8S)-8-fluoro-2-azabicyclo[5.1.0]octan-2-yl)pyrido[4,3-d]pyrimidin-7-yl)-2-fluoro-3-methyl-4-(trifluoromethyl)aniline]	5.00 to 6.30
[2H]C([2H])(F)Oc1c(F)ccc2cccc(-c3ncc4c(N5CCOC[C@H]6[C@H](F)[C@H]65)nc(OC[C@@]56CCCN5C/C(=C\F)C6)nc4c3F)c12 [Example 157, (1S,7S,8S)-8-fluoro-2-(8-fluoro-7-(7-fluoro-8-(fluoromethoxy-d2)naphthalen-1-yl)-2-(((S,Z)-2-(fluoromethylene)tetrahydro-1H-pyrrolizin-7a(5H)-yl)methoxy)pyrido[4,3-d]pyrimidin-4-yl)-5-oxa-2-azabicyclo[5.1.0]octane]	> 7.30
[2H]C([2H])(F)Oc1c(F)c(F)cc2cc(N)cc(-c3ncc4c(N5CCOC[C@H]6[C@H](F)[C@H]65)nc(OC[C@@]56CCCN5C/C(=C\F)C6)nc4c3F)c12 [Example 162, 6,7-Difluoro-4-(8-fluoro-4-((1S,7S,8S)-8-fluoro-5-oxa-2-azabicyclo[5.1.0]octan-2-yl)-2-(((S,Z)-2-(fluoromethylene)tetrahydro-1H-pyrrolizin-7a(5H)-yl)methoxy)pyrido[4,3-d]pyrimidin-7-yl)-5-(fluoromethoxy-d2)naphthalen-2-amine]	> 7.30
[2H]C([2H])(Oc1nc(N2CCOC[C@H]3[C@H](F)[C@H]32)c2cc(C(F)(F)F)c(-c3cc(N)cc4ccc(F)c(C#C)c34)c(F)c2n1)[C@@]12CCCN1C[C@H](F)C2 [Example 328, 5-ethynyl-6-fluoro-4-(8-fluoro-4-((1S,7S,8S)-8-fluoro-5-oxa-2-azabicyclo[5.1.0]octan-2-yl)-2-(((2R,7aS)-2-fluorotetrahydro-1H-pyrrolizin-7a(5H)-yl)methoxy-d2)-6-(trifluoromethyl)quinazolin-7-yl)naphthalen-2-amine]	5.00 to 6.30
[2H]C1([2H])CC[C@@]2(C([2H])([2H])Oc3nc(N4CCOC[C@H]5[C@H](F)[C@H]54)c4cnc(-c5cc(N)cc6ccc(F)c(C#C)c56)c(F)c4n3)C[C@@]3(C[C@H]3F)CN12 (single isomer, unassigned) [Example 274]	> 7.30

Same assay, conditions: Homo sapiens, NCI-H441, pERK HTRF, NCI-H441 cells (KRAS G12V)

Structure (SMILES)	pIC50
[2H]C1([2H])CCO[C@@H]2C[C@@H]2N1c1nc(OC([2H])([2H])[C@@]23CCCN2C[C@H](F)C3)nc2c(F)c(-c3cc(N)cc4cc(F)c(F)c(C#C)c34)ncc12 [Example 26, 4-(4-((1R,7S)-2-Oxa-6-azabicyclo[5.1.0]octan-6-yl-5,5-d2)-8-fluoro-2-(((2R,7aS)-2-fluorotetrahydro-1H-pyrrolizin-7a(5H)-yl)methoxy-d2)pyrido[4,3-d]pyrimidin-7-yl)-5-ethynyl-6,7-difluoronaphthalen-2-amine]	6.30 to 7.30
C#Cc1c(F)ccc2cc(O)cc(-c3ncc4c(N5CCCC6CC6C5)nc(OC[C@@]56CCCN5C[C@H](F)C6)nc4c3F)c12 (stereo partly drawn) [Example 12, 4-(4-(3-Azabicyclo[5.1.0]octan-3-yl)-8-fluoro-2-(((2R,7aS)-2-fluorotetrahydro-1H-pyrrolizin-7a(5H)-yl)methoxy)pyrido[4,3-d]pyrimidin-7-yl)-5-ethynyl-6-fluoronaphthalen-2-ol]	> 7.30

Same assay, conditions: cellular pERK (Thr202/Tyr204) HTRF, NCI-H441 cells

Structure (SMILES)	pIC50
[2H]C([2H])(Oc1nc(N2CCOC[C@@H]3[C@@H](Cl)[C@@H]32)c2cc(C(F)(F)F)c(-c3ccc(F)c4sc(N)c(C#N)c34)c(F)c2n1)[C@@]12CCCN1C[C@H](F)C2 (atropisomer, axis not shown; (aS)) [Example 421, 2-amino-4-((R)-4-((1R,7R,8R)-8-chloro-5-oxa-2-azabicyclo[5.1.0]octan-2-yl)-8-fluoro-2-(((2R,7aS)-2-fluorotetrahydro-1H-pyrrolizin-7a(5H)-yl)methoxy-d2)-6-(trifluoromethyl)quinazolin-7-yl)-7-fluorobenzo[b]thiophene-3-carbonitrile]	5.00 to 6.30

From patent publication US20250282799A1, “SUBSTITUTED PYRIDO[4,3-d]PYRIMIDINES AS KRAS MODULATORS” (Alterome Therapeutics, Inc., priority 2023, published 2025)
